Experimental data as given in PMC5537347, “A short D-enantiomeric antimicrobial peptide with potent immunomodulatory and antibiofilm activity against multidrug-resistant Pseudomonas aeruginosa and Acinetobacter baumannii” (Scientific Reports, 2017).
In brackets after ≈: the same amount, converted by molar mass. Like-named read-outs stand apart in the source and are kept apart here. Peptide text beside a SMILES is read from it.

Tests used:
[1] = tested on: C. elegans strain glp-4;sek 1; test: Toxicity of peptides in uninfected C. elegans; format: in vivo, Caenorhabditis elegans; conditions: worms grown four days with peptide; D-RR4 and colistin at 8 × MIC
Description: To test the efficacy of the synthetic peptides to protect against infections in vivo, we utilized a C. elegans model of bacterial infection. This model has been used extensively for early-stage evaluation of promising antimicrobials, [35], [36]. Initially, the lethal dose of D-RR4 against uninfected nematodes was determined.
(A) Evaluation of toxicity of peptides in Caenorhabditis elegans. C. elegans strain glp-4;sek 1 was grown for four days in the presence of peptides at different concentrations. Worms were monitored daily and the live worms were counted. Results are expressed as a Kaplan-Meier survival curve. (B) Evaluation of antimicrobial activity of peptides to reduce the bacterial CFU inside infected Caenorhabditis elegans. C. elegans strain glp-4; sek 1 were infected with P. aeruginosa PAO1, colistin-resistant P. aeruginosa 1109, or A. baumannii ATCC BAA-1605. […] After treatment, worms were lysed and bacteria were counted. One asterisk (*) indicates significant difference with the negative control. Two asterisks (**) indicates significant difference with the monotherapy treatment (P < 0.05). Results are expressed as means from three biological replicates ± standard deviation. (C) Efficacy of peptides in a Caenorhabditis elegans model of bacterial infection. […] Worms were monitored daily and the live worms were counted. Results are expressed as a Kaplan-Meier survival curve. C. elegans receiving no treatment served as a negative control.

[2] = tested on: P. aeruginosa PAO1 biofilm; test: Disruption of established biofilms, microtiter dish crystal violet assay; format: cell-based; conditions: 32 × MIC, mature (24 hour) biofilm, 24 hours at 37 °C, crystal violet OD 595 nm
Description: Figure 1 Efficacy of peptides on established biofilms of P. aeruginosa PAO1 and A. baumannii ATCC BAA-1605. […] After incubation, wells were washed and biofilms were stained with 0.5% (w/v) crystal violet for 30 minutes. The dye was solubilized with ethanol (95%) and the optical density (595 nm) of the biofilm mass was measured. Experiments were repeated twice independently and the average values are reported.
To examine the peptides’ ability to disrupt bacterial biofilms, the microtiter dish biofilm formation assay was employed[41]–[43].

[3] = tested on: P. aeruginosa and A. baumannii isolates
From the text: (§1) The broth microdilution technique was utilized to assess the MIC of designed peptides according to the guidelines of the Clinical and Laboratory Standards Institute (CLSI)[37].

[4] = tested on: colistin-resistant P. aeruginosa isolated from cystic fibrosis patients; conditions: colistin-resistant isolated from cystic fibrosis patients
From the text: as §1

[5] = tested on: human keratinocytes (HaCaT cells); test: Cytotoxicity, MTS assay; conditions: 24 h
Description: (§2) A significant limitation for translating AMPs into clinical applications is their toxicity to host (mammalian) cells. Herein, we evaluated the cytotoxic effects of our peptide constructs against murine macrophages (J774.1A) and human keratinocytes (HaCaT cells), via the MTS assay.
(§3) The peptides were assayed for potential in vitro toxicity against human keratinocytes (HaCaT) and murine macrophage cells (J774A.1), as described before, with the following modifications. Cells were treated with peptides at different concentrations for 24 hours. The therapeutic index of the peptides was calculated as the ratio of mammalian EC50 (the concentration of peptide that inhibited growth of 50% of the mammalian cells) to the MIC50 of peptides against bacteria.

[6] = tested on: murine macrophages (J774.1A); test: Cytotoxicity, MTS assay; conditions: 24 h
Description: as §2, §3

human red blood cells = test: Hemolysis assay; format: cell-based; conditions: for HC50: red cells of human
Description: Next, we assessed the hemolytic activity of the peptides on human red blood cells (RBCs).
Peptides were assayed for hemolytic activity against human red blood cells, as described previously.

[7] = tested on: LPS-induced activation of the LAL enzyme (Limulus amoebocyte lysate); test: Binding of peptides to lipopolysaccharide (LAL assay); format: biochemical; conditions: one EU of LPS, 37 °C, 30 minutes
Description: (§4) Figure 3 Ability of peptides to neutralize LPS and reduce inflammatory cytokines expression. (A) LPS binding activity of peptides. Peptides at different concentrations were incubated with one endotoxin unit (EU) of LPS at 37 °C for 30 minutes. […] The binding of peptides with LPS is expressed as percent change relative to the untreated samples. (B) Anti-inflammatory effect of peptides on LPS-stimulated macrophages. J774A.1 cells were stimulated with LPS (150 ng/mL final concentration) in the presence of different concentrations of peptides. Cells stimulated with LPS alone and untreated cells served as controls. Cells were incubated for six hours at 37 °C before the supernatant from each treatment group was collected. Detection of tumor necrosis factor-α (TNF-α) and interleukin-6 (IL-6) in supernatants was determined using ELISA. Cytokine levels are expressed as percent change relative to the LPS-stimulated control. Statistical analysis was calculated using one-way ANOVA, with post hoc Tukey’s multiple comparisons test. P < 0.05 was considered significant. One asterisk (*) indicates significant difference with the negative control.
To determine the peptides’ ability to bind to LPS, a Limulus amoebocyte lysate (LAL) kit (Genscript, USA Inc.) was utilized, as described in previous reports. The peptides were dissolved in pyrogen-free water and serially diluted in the same solvent. The peptides were then incubated with one endotoxin unit (EU) of LPS at 37 °C for 30 minutes in order to permit the peptides to bind LPS. The reaction mixture (50 μL) was added to 50 μL of LAL reagent, and further incubated for 10 minutes. Next, 100 μL of LAL chromogenic substrate was added. The mixture was incubated at 37 °C for six minutes. The optical density (at 545 nm) was determined using a microplate reader. Colistin was used as a positive control. The binding of peptides with LPS was expressed as the percent change relative to the untreated control.

IL-6 = test: Anti-inflammatory effect on LPS-stimulated macrophages, ELISA; format: cell-based, murine; conditions: J774A.1 cells, LPS 150 ng/mL, six hours
Description: as §4
(§5) To assess the anti-inflammatory effect of our peptides on LPS-stimulated macrophages, J774A.1 cells were seeded and incubated as described above (for toxicity assessment). Next, the cells were stimulated with LPS (150 ng/ml final concentration) in the presence of different concentrations of peptides (RR and D-RR4). Cells stimulated with LPS alone and untreated cells served as controls. Cells were incubated for six hours at 37 °C and the supernatant from each treatment was collected and stored at −20 °C until use. Tumor necrosis factor-α (TNF-α) and interleukin-6 (IL-6) present in the supernatant was quantified using ELISA, as described previously. Cytokine levels were presented as the percent change relative to the LPS-stimulated control, using triplicate samples for each treatment condition.

TNF-α = test: as above; format: cell-based, murine; conditions: J774A.1 cells, LPS 150 ng/mL, six hours
Description: as §4, §5

For CC[C@H](C)[C@H](NC(=O)CN)C(=O)NCC(=O)N[C@@H](C)C(=O)N[C@H](C(=O)N[C@@H](CC(C)C)C(=O)N[C@@H](CCCCN)C(=O)N[C@H](C(=O)N[C@@H](CC(C)C)C(=O)N[C@H](C(=O)N[C@H](C(=O)NCC(=O)N[C@@H](CC(C)C)C(=O)N1CCC[C@H]1C(=O)N[C@@H](C)C(=O)N[C@@H](CC(C)C)C(=O)N[C@H](C(=O)N[C@@H](CO)C(=O)N[C@@H](Cc1c[nH]c2ccccc12)C(=O)N[C@H](C(=O)N[C@@H](CCCCN)C(=O)N[C@@H](CCCNC(=N)N)C(=O)N[C@@H](CCCCN)C(=O)N[C@@H](CCCNC(=N)N)C(=O)N[C@@H](CCC(N)=O)C(=O)N[C@@H](CCC(N)=O)C(N)=O)[C@@H](C)CC)[C@@H](C)CC)[C@@H](C)O)[C@@H](C)O)C(C)C)C(C)C [Melittin], the “toxicity to uninfected worms” value [1] was “completely killed C. elegans after 3 days”.

Work on NC[C@H]1O[C@H](O[C@H]2[C@H](O)[C@@H](O[C@H]3O[C@H](CO)[C@@H](O)[C@H](N)[C@H]3O)[C@H](N)C[C@@H]2N)[C@H](N)C[C@@H]1O [tobramycin] yielded a biofilm mass disrupted [2] of 50%.

CC[C@H](C)[C@H](NC(=O)[C@H](Cc1c[nH]c2ccccc12)NC(=O)[C@H](CCCCN)NC(=O)[C@H](CCCCN)NC(=O)[C@@H](NC(=O)[C@H](CCCNC(=N)N)NC(=O)[C@H](CCCNC(=N)N)NC(=O)[C@@H](NC(=O)[C@@H](N)Cc1c[nH]c2ccccc12)[C@@H](C)CC)[C@@H](C)CC)C(=O)N[C@@H](CCCNC(=N)N)C(=O)N[C@@H](CCCNC(=N)N)C(=O)N[C@H](C(=O)N[C@@H](Cc1c[nH]cn1)C(=O)N[C@@H](CCCCN)C(=O)O)C(C)C [RR2] (H-WIRRIKKWIRRVHK-OH; N-terminus and C-terminus assumed) gave an MIC50 [3] of 4 µM (≈ 7.9 µg/mL), an MIC90 [3] of 8 µM (≈ 15.8 µg/mL) and an MIC50 [4] of 32 µM (≈ 63.2 µg/mL). It also gave an MIC90 [4] of 32 µM (≈ 63.2 µg/mL), an EC50 [5] of 64 µM and an EC50 [6] of 128 µM. The “Therapeutic index (TI) RBCs” value (human red blood cells) was 64 and the HC50 (human red blood cells) was 256 µM.

CNC(C)C1CCC(N)C(OC2C(N)CC(N)C(OC3OCC(C)(O)C(NC)C3O)C2O)O1 (stereo not drawn) [gentamicin] gave a biofilm mass disrupted [2] of 50%.

In the case of CC[C@H](C)[C@H](NC(=O)[C@H](CCCNC(=N)N)NC(=O)[C@H](CCCNC(=N)N)NC(=O)[C@H](CC(C)C)NC(=O)[C@@H](N)Cc1c[nH]c2ccccc12)C(=O)N[C@@H](CCCCN)C(=O)N[C@@H](C)C(=O)N[C@@H](Cc1c[nH]c2ccccc12)C(=O)N[C@@H](CC(C)C)C(=O)N[C@@H](CCCNC(=N)N)C(=O)N[C@@H](CCCNC(=N)N)C(=O)O [RR] (H-WLRRIKAWLRR-OH; N-terminus and C-terminus assumed), the “inhibition of LPS-induced activation of the LAL enzyme” value (from here on “inhibition”) ([7]; 5 µM peptide) is reported as 21.3%, the “inhibition” value ([7]; 10 µM peptide) is reported as 43.2% and the “inhibition” value ([7]; 15 µM peptide) is reported as 59.6%. For the same molecule, the “inhibition” value ([7]; 20 µM peptide) was 82.4%, the “decrease of IL-6 production” value (IL-6; 10 µM) was 75.4% and the “decrease of IL-6 production” value (IL-6; 20 µM) was 96.5%. For the same molecule, the “decrease of TNF-α production” value (TNF-α; 10 µM) was 24.4% and the “decrease of TNF-α production” value (TNF-α; 20 µM) was 84.0%.

For CC[C@H](C)[C@H](NC(=O)[C@H](CCCCN)NC(=O)[C@H](CCCCN)NC(=O)[C@H](Cc1c[nH]c2ccccc12)NC(=O)[C@@H](NC(=O)[C@H](CCCCN)NC(=O)[C@@H](NC(=O)[C@H](CCCNC(=N)N)NC(=O)[C@H](CCCNC(=N)N)NC(=O)[C@H](CCCCN)NC(=O)[C@@H](N)Cc1c[nH]c2ccccc12)[C@@H](C)CC)[C@@H](C)CC)C(=O)N[C@@H](CCCNC(=N)N)C(=O)O [RR1] (H-WKRRIKIWKKIR-OH; N-terminus and C-terminus assumed), the MIC90 [3] was over 256 µM, the “MIC against all tested bacterial strains” value [3] was over 256 µM and the MIC50 ([3]; MIC that inhibited growth of 50% of all isolates (Table 2)) was over 256 µM. For the same molecule, the MIC [4] was over 128 µM, the MIC50 [4] was over 128 µM and the MIC90 [4] was over 128 µM. For the same molecule, the EC50 [5] was over 256 µM, the EC50 [6] was over 256 µM and the HC50 (human red blood cells) was over 256 µM.

CC[C@H](C)[C@H](NC(=O)[C@H](CCCNC(=N)N)NC(=O)[C@H](CCCNC(=N)N)NC(=O)[C@H](CC(C)C)NC(=O)[C@@H](N)Cc1c[nH]c2ccccc12)C(=O)N[C@@H](CCCCN)C(=O)N[C@@H](C)C(=O)N[C@@H](Cc1c[nH]c2ccccc12)C(=O)N[C@@H](CC(C)C)C(=O)N[C@@H](CCCNC(=N)N)C(=O)N[C@@H](CCCNC(=N)N)C(=O)N[C@@H](CCCCN)C(=O)N[C@@H](CCCNC(=N)N)C(=O)N[C@@H](CCCCN)C(=O)O [RR3] (H-WLRRIKAWLRRKRK-OH; N-terminus and C-terminus assumed) was tested, and the MIC50 [3] was 8 µM (≈ 15.7 µg/mL), the MIC90 [3] was 16 µM (≈ 31.5 µg/mL) and the MIC50 [4] was 16 µM (≈ 31.5 µg/mL). It also gave an MIC90 [4] of 32 µM (≈ 62.9 µg/mL), an EC50 [5] of 128 µM and an EC50 [6] of 128 µM. For the same molecule, the “Therapeutic index (TI) RBCs” value (human red blood cells) was 64 and the HC50 (human red blood cells) was over 256 µM.
